The record followed here is patent US11919902B2, “Aryl-bipyridine amine derivatives as phosphatidylinositol phosphate kinase inhibitors” (HiberCell, Inc., priority 2017, dated 2024).

Assay [1] addresses T1, GST tagged PIP4KtypeIIA (Homo sapiens, UniProt P48426).
T1 construct: made in house; host or cells: E. coli
T1 sequence (P48426 1-406): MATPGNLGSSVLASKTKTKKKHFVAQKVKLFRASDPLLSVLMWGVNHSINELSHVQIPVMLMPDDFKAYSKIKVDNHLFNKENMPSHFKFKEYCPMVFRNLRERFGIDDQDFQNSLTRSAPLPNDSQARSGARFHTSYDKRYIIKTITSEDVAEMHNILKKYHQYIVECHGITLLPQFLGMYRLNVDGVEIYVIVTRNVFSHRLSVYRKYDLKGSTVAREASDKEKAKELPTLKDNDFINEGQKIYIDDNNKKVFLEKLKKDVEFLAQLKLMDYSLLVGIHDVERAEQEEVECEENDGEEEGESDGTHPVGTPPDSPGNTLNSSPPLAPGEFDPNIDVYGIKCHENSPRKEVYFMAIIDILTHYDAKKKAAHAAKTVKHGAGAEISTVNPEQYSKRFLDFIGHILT
Nature of the assay: ADP-glo kinase assay PIP4K 2A (PIP4KtypeIIA inhibition assay). Particulars: Table 3; compounds listed under IC50 range headings; 10 uM ATP, 0.5 nM PIP4KIIA. Type of assay: biochemical. From the text:
GST tagged PIP4KtypeIIA and B enzymes were overexpressed in E. Coli and purified to >80% homogeneity. Phosphatidyl inositol-5-phosphate (PI5P, Cat. #850152, Avanti Polar Lipids Inc.) was used as the lipid substrate and phosphatidyl ethanolamine (DOPE 18:1, Cat. #850725, Avanti Polar Lipids Inc.) was used as the carrier lipid for assays. Ultrapure ATP and GTP was purchased from Bellbrooke Labs. ADP Glo reagents were obtained from Promega. Transcreener FI reagent was obtained from Bellbrooke labs.
1. HEPES buffer mix: 200 mM HEPES pH 7.4, 50 mM MgCl2, 0.05% v/v triton×100
2. HNE buffer: 20 mM HEPES, pH 7.4, 100 mM NaCl, 0.5 mM EGTA
3. H:E buffer: 30 mM HEPES, pH 7.4, 1 mM EGTA
Enzyme preparation: GST-tagged PIP4KtypeIIA (5 uL, 1.43 mg/mL) was diluted (1:10) to 50 uL using HNE buffer. From the 1:10 diluted stock, a 6.4 uL aliquot was diluted further to 5 mL using HNE buffer to yield 5× enzyme stock (2.5 nM).
Lipid Preparation: In a 10 mL pyrex glass vial, lug of PI5P and lug of DOPE were suspended in 2.5 mL of HEPES buffer mix and 2.5 mL of H:E buffer. The contents were mixed and sonicated for 3 min to yield a translucent lipid stock.
Compound Preparation: Compounds were stored as 5 mM stocks in neat DMSO as room temperature in glass vials. 5 mM stocks were diluted to 2 mM and then serially diluted (3×) in neat DMSO in 96 well polypropylene plates. From the serially diluted stocks, 3 uL was delivered into 250 uL of 25% DMSO (in water) to generate 5× compound stocks. Typically, the highest compound conc. was 24 uM.
The assay volume was kept at 25 uL. To each well of the reaction plate, 10 uL of lipid stock (1:1 ratio PI5P:DOPE) was delivered. This was followed by the addition of 5 uL of compound in 25% DMSO. Then, to each well, 5 uL of 2.5 nM (5×) typeIIA enzyme was delivered. The contents were mixed well and incubated for 1 h at 27 C. After 1 h, reaction was initiated by adding 5 uL of 50 uM ATP and the contents were mixed well with a multi-channel pipetteman. The final concentration of the reagents are as follows: 50 mM HEPES, pH 7.3, 10 mM MgCl2, 20 mM NaCl, 0.01% v/v triton-X100, 5% DMSO, 10 uM ATP, 80 uM (2 ug) PI5P, 2 ug DOPE, and 0.5 nM PIP4KIIA. Typically, the highest conc. of compounds was 4.8 uM and the lowest conc. was 0.
After 1 hr, the reaction was quenched by adding 25 uL of ADP Glo reagent. The contents were incubated for 1 hr. Afterwards, 50 uL of kinase detection reagent was delivered. The contents were incubated for another hour. The luminescence was read using Molecular Devices Paradigm plate reader. […] The blanks were averaged and subtracted from all other wells. Using a calibration curve, RLU was converted to uM ADP (product). IC50 was calculated by plotting the residual activity (expressed as % No inhibitor control) vs. log [Inh. conc.]
Background: In ADP-Glo the light output rises with the ADP produced.

The target in assay [2] is T2, GST tagged PIP4KtypeIIB (Homo sapiens, UniProt P78356).
T2 construct: made in house; host or cells: E. coli
T2 sequence (P78356 1-416): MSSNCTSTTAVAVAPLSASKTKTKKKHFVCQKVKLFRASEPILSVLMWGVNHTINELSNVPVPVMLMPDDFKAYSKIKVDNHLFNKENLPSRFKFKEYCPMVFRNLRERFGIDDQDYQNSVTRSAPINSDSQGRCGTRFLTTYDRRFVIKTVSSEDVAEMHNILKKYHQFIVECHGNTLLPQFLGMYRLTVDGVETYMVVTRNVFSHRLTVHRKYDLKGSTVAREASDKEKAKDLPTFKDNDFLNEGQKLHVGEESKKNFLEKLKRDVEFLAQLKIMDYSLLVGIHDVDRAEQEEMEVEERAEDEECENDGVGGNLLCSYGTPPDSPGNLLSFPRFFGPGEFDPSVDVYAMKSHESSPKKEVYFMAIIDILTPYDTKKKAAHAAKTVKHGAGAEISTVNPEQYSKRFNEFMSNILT
Description: Trans-FI P kinase assay PIP4K2B (PIP4KtypeIIB inhibition assay). Format: biochemical. To be noted: Table 4; compounds listed under IC50 range headings; 100 uM GTP, 5 nM PIP4KIIB; read-out: Trans-FI P kinase assays: PIP4K2B IC50. The gist of the method: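 Purified GST-PIP4KIIB (5 nM final), 1 h preincubation with compound at 27 C, then 2 h reaction with 100 uM GTP and 80 uM PI5P plus DOPE carrier lipid in pH 7.3 HEPES/MgCl2/Triton buffer with 5% DMSO. GDP read by Transcreener FI fluorescence against a calibration curve; IC50 from % no-inhibitor activity vs log concentration.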

The target of assay [3] is T3, PIP4K2A (full length protein, SignalChem) (Homo sapiens, UniProt P48426).
T3 construct: 4 nM PIP4K2A (full length protein, SignalChem); purchased SignalChem
T3 sequence (P48426 1-406): T1 sequence (P48426 1-406)
Nature of the assay: Kinase Assay PIP4K2 A (Sprint); ADP-Glo biochemical assay. Particulars: Table 2; compounds listed under IC50 range headings. The method in brief: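 Compounds (10-point, 3-fold dilutions) were pre-incubated 15 min at RT with an enzyme/substrate mix of 4 nM full-length PIP4K2A and 100 μM PI(5)P diC8 in 20 mM MOPS pH 7.2, 25 mM MgCl2, 0.005% Tween 20. A 60 μM ATP solution was added, reaction 1 h RT; ADP read by ADP-Glo luminescence, IC50 fitted from % inhibition vs DMSO.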

Consider `O=C1CCCN1c1ccc(-c2cncc(-c3c4n(c5ncncc35)CCC4)c2)cc1` [Example 352, 1-(4-(5-(7,8-dihydro-6H-pyrimido[5,4-b]pyrrolizin-5-yl)pyridin-3-yl)phenyl)pyrrolidin-2-one], for which the IC50 in assay [1] and in assay [2] was 10 to 100 nM throughout.

For `O=C(Nc1ccc(-c2cncc(-c3ccnc4[nH]ncc34)c2)cc1)C(=O)N1CC2CCC1C2` (stereo not shown) [Example 203, N-(4-(5-(1H-pyrazolo[3,4-b]pyridin-4-yl)pyridin-3-yl)phenyl)-2-(2-azabicyclo[2.2.1]heptan-2-yl)-2-oxoacetamide], the IC50 (commonly the point on the concentration scale where inhibition reaches its midpoint) was in the range of 100 to 1000 nM in assay [1] and 2500 to 5000 nM in assay [2].

`O=C(NCCc1cncs1)c1cc2c(-c3cncc(-c4ccc(N5CCCC5=O)cc4)c3)ccnc2[nH]1` [Example 298, 4-(5-(4-(2-oxopyrrolidin-1-yl)phenyl)pyridin-3-yl)-N-(2-(thiazol-5-yl)ethyl)-1H-pyrrolo[2,3-b]pyridine-2-carboxamide]: the half-inhibitory concentration (IC50) in assay [1] was 100 to 1000 nM; in assay [2], 10 to 100 nM.

With `CN(C)C(=O)c1cnc2[nH]c(C3CC3)c(-c3cncc(-c4ccc(N5CCCC5=O)cc4)c3)c2c1` [Example 252, 2-cyclopropyl-N,N-dimethyl-3-(5-(4-(2-oxopyrrolidin-1-yl)phenyl)pyridin-3-yl)-1H-pyrrolo[2,3-b]pyridine-5-carboxamide], the IC50 in assay [1] and in assay [2] was 10 to 100 nM throughout.

For `O=C(NC1CC1)c1cc2c(-c3cncc(-c4ccc(N5CCCC5=O)cc4)c3)ccnc2[nH]1` [Example 242, N-cyclopropyl-4-(5-(4-(2-oxopyrrolidin-1-yl)phenyl)pyridin-3-yl)-1H-pyrrolo[2,3-b]pyridine-2-carboxamide], the IC50 in assay [1] fell in the range of 100 to 1000 nM; in assay [2] it was 10 to 100 nM.

On to `O=C(NCCc1ccc[nH]1)c1cc2c(-c3cncc(-c4ccc(N5CCCC5=O)cc4)c3)ccnc2[nH]1` [Example 261, N-(2-(1H-pyrrol-2-yl)ethyl)-4-(5-(4-(2-oxopyrrolidin-1-yl)phenyl)pyridin-3-yl)-1H-pyrrolo[2,3-b]pyridine-2-carboxamide], for which the IC50 was in the range of 100 to 1000 nM in assay [1] and 10 to 100 nM in assay [2].

Regarding `CN1CCn2c(cc3c(-c4cncc(-c5ccc(N6CC(C)(C)CC6=O)cc5)c4)ccnc32)C1=O` [Example 200, 4-(5-(4-(4,4-dimethyl-2-oxopyrrolidin-1-yl)phenyl)pyridin-3-yl)-7-methyl-8,9-dihydropyrido[3′,2′:4,5]pyrrolo[1,2-a]pyrazin-6(7H)-one], the IC50 lay within 100 to 1000 nM in assay [1] and 10 to 100 nM in assay [2].

`O=C(NCc1ccccc1)c1cc2c(-c3cncc(-c4ccc(N5CCCC5=O)cc4)c3)ccnc2[nH]1` [Example 232, N-benzyl-4-(5-(4-(2-oxopyrrolidin-1-yl)phenyl)pyridin-3-yl)-1H-pyrrolo[2,3-b]pyridine-2-carboxamide]: the IC50 in assay [1] was in the range of 100 to 1000 nM; in assay [2], 10 to 100 nM.

Take `Cc1c(-c2ccc(N3CCCC3=O)cc2)cncc1-c1cn(C)c2ncc(C(C)O)cc12` (stereo not shown) [Example 196, 1-(4-(5-(5-(1-hydroxyethyl)-1-methyl-1H-pyrrolo[2,3-b]pyridin-3-yl)-4-methylpyridin-3-yl)phenyl)pyrrolidin-2-one]: the IC50 in assay [1] was in the range of 100 to 1000 nM.

As to `CC(C)c1[nH]c2ncc(C(=O)N(C)C)cc2c1-c1cncc(-c2ccc(N3CCCC3=O)cc2)c1` [Example 269, 2-isopropyl-N,N-dimethyl-3-(5-(4-(2-oxopyrrolidin-1-yl)phenyl)pyridin-3-yl)-1H-pyrrolo[2,3-b]pyridine-5-carboxamide], the IC50 in assay [1] and in assay [2] was 100 to 1000 nM each time.

For the molecule `CN(C)S(=O)(=O)c1cnc2[nH]cc(-c3cncc(-c4ccc(N5CCCC5=O)cc4)c3)c2c1` [Example 295, N,N-dimethyl-3-(5-(4-(2-oxopyrrolidin-1-yl)phenyl)pyridin-3-yl)-1H-pyrrolo[2,3-b]pyridine-5-sulfonamide], the results for the IC50 in assay [1] and in assay [2] were 100 to 1000 nM and 1000 to 2500 nM, respectively.

Consider `CN(C)C(=O)c1ccc(-c2cc(-c3ccnc4[nH]c(C(N)=O)cc34)cnc2N)nc1` [Example 143, 4-(2′-amino-5-(dimethylcarbamoyl)-[2,3′-bipyridin]-5′-yl)-1H-pyrrolo[2,3-b]pyridine-2-carboxamide], for which the IC50 in assay [1] was 100 to 1000 nM; in assay [2], 10 to 100 nM.

For the molecule `Cc1cc(N2CCn3c(cc4c(-c5cncc(-c6ccc(N7CCCC7=O)cc6)c5)ccnc43)C2=O)nn1C` [Example 331, 7-(1,5-dimethyl-1H-pyrazol-3-yl)-4-(5-(4-(2-oxopyrrolidin-1-yl)phenyl)pyridin-3-yl)-8,9-dihydropyrido[3′,2′:4,5]pyrrolo[1,2-a]pyrazin-6(7H)-one], the IC50 fell in the range of 100 to 1000 nM in assay [3] and 10 to 100 nM in assay [2].

Turning to `Cc1ccnnc1-c1ccc(-c2cncc(-c3ccnc4c3cc3n4CCN(C)C3=O)c2)cc1` [Example 370, 7-methyl-4-(5-(4-(4-methylpyridazin-3-yl)phenyl)pyridin-3-yl)-8,9-dihydropyrido[3′,2′:4,5]pyrrolo[1,2-a]pyrazin-6(7H)-one], the IC50 is 5 to 100 nM in assay [3] and 1 to 10 nM in assay [2].

As for `CNC(=O)c1cc2c(-c3cnc(N)c(-c4ccc(-c5nncn5C(C)C)cc4)c3)ccnc2o1` [Example 362, 4-(6-amino-5-(4-(4-isopropyl-4H-1,2,4-triazol-3-yl)phenyl)pyridin-3-yl)-N-methylfuro[2,3-b]pyridine-2-carboxamide], the IC50 in assay [3] lay in the range of 100 to 1000 nM; in assay [2], 10 to 100 nM.

Regarding `CN(C(=O)c1cc2c(-c3cncc(-c4ccc(N5CCCC5=O)cc4)c3)ccnc2[nH]1)c1ccccc1` [Example 311, N-methyl-4-(5-(4-(2-oxopyrrolidin-1-yl)phenyl)pyridin-3-yl)-N-phenyl-1H-pyrrolo[2,3-b]pyridine-2-carboxamide], the figures for the 50% inhibitory concentration (IC50) in assay [3] and in assay [2] were 1000 to 2500 nM and 100 to 1000 nM, respectively.
